# Assay results published in patent publication US20220288057A1, “CONJOINT THERAPY FOR TREATING SEIZURE DISORDERS” (XENON PHARMACEUTICALS INC., priority 2021, published 2022).
# “And” between values parts separate entries of the source, which are not always exact repeats. Identical values can stand only once. Like-named read-outs stand apart in the source and are kept apart here.
# Test: Terminal plasma and brain concentrations in AC-MES studies (UHPLC-MS/MS)
# Assay type: in vivo, mouse
# Conditions: for concentration at 0.5 h / Kp at 0.5 h / concentration at 30 min / Kp at 30 min: CF-1, mouse, in vivo
# Method: Sample Collection and Preparation: Mice were anesthetized by isoflurane inhalation (according to SOP TECH-018) until they reached a surgical plane of anesthesia. Then a syringe (1 mL syringe with a 22 gauge needle) was inserted under the sternum into the heart (according to SOP TECH-031). Approximately 0.5 mL of blood was collected, deposited into a K2EDTA tube, and stored on ice. Animals were then euthanized by cervical dislocation. Brains were removed, placed into a pre-weighed vial, and snap frozen on dry ice. At the end of the sample collection, blood was centrifuged at 4000 rpm for 10 minutes at 4° C., and the plasma pipetted into a labeled tube. All samples were stored in a −80° C. freezer until the time of bioanalysis.
# Plasma Samples: Extraction of plasma samples was carried out by protein precipitation using acetonitrile. Diluted plasma samples (50 μL) were mixed with 50 μL of internal standard (IS) solution in 1:1 acetonitrile:water (v:v) followed by addition of 200 μL of acetonitrile. Samples were vortexed for 30 seconds, centrifuged at 13,000 rpm for 20 minutes, decanted into a 96-well plate and further centrifuged at 4000 rpm for 20 minutes. The samples were analyzed by ultra-high performance liquid chromatography electrospray ionization tandem mass spectrometry (UHPLC-ESI-MS/MS) as described in the bioanalysis procedure below.
# Brain Samples: Prior to extraction, pre-weighed whole brains were homogenized in 1:1 acetonitrile:water (v:v) (2 mL per mouse brain) using an IKA T18 Ultra-Turrax Homogenizer at the setting of 4 for approximately 1 minute. The homogenate was centrifuged at 13,000 rpm for 20 minutes and 50 μL of the supernatant were treated exactly as described in above for plasma samples.
# Bioanalysis Procedures: All samples, including plasma and brain homogenate extracts (including calibration standards and quality control (QC) samples prepared in K2EDTA mouse plasma), were extracted by protein precipitation. To each 50 μL aliquot of sample, 50 μL of IS solution (2500 ng/mL of Lacosamide in water:acetonitrile (1:1)) and 50 μL of 6% (v:v) phosphoric acid in water were added, then 200 μL acetonitrile was added. The samples in 1.7 mL tubes were vortex-mixed then centrifuged for 20 minutes at 13,000 rpm. Fifty microliters of the supernatant was mixed with 150 μL of water:acetonitrile (1:1) in a 96 well plate, which was centrifuged post-mixing for 20 minutes at 4000 rpm. The samples were then ready for UHPLC-MS/MS analysis.
# Samples were analyzed for Compound A by a research-grade UHPLC-MS/MS method using the conditions listed below.
# Samples were analyzed for Lacosamide by a research-grade UHPLC-MS/MS method using the conditions listed below.
# At least three QC samples, one at each concentration, had to show back-calculated values within ±20% of their nominal concentrations for the whole sample batch to be valid.
# The Blinding and Randomization, Clinical Observations, AC-MES Assay, Sample Collection and Preparation, Plasma and Brain Samples Analysis, and Bioanalysis Procedures in Example 4 were identical to those used in Example 2.
# Sample concentration determination and Data Processing and Analysis in Example 4 was identical to Example 2.
# [1] = Study 2C, analyte Compound A, 3 mg/kg PO 0.5 h + Lacosamide 10 mg/kg PO 2 h
# [2] = Study 4F, Compound A 2 mg/kg PO (0.5 h) in combination with Cenobamate 5 mg/kg PO (2 h)
# [3] = Study 4G, Compound A 0.5 mg/kg PO (0.5 h) in combination with Cenobamate 5 mg/kg PO (2 h)
# [4] = Study 4G, Compound A 1 mg/kg PO (0.5 h) in combination with Cenobamate 5 mg/kg PO (2 h)
compound,measurement,setting,value
"Cc1cc(N2CCc3cc(F)ccc3C2)cc(C)c1NC(=O)CC(C)(C)C [Compound A, N-[4-(6-fluoro-3,4-dihydro-1H-isoquinolin-2-yl)-2,6-dimethylphenyl]-3,3-dimethylbutanamide]",concentration at 0.5 h,"2 mg/kg, Study 4F, Compound A 2 mg/kg PO alone, 0.5 h pre-treatment, CF-1 mice, read-out: Mean Brain",250 nM
same,concentration at 0.5 h,"2 mg/kg, Study 4F, Compound A 2 mg/kg PO alone, 0.5 h pre-treatment, CF-1 mice, read-out: Mean Plasma",110 nM
same,concentration at 0.5 h,"Study 2C, analyte Compound A, 3 mg/kg PO 0.5 h + Lacosamide 10 mg/kg PO 2 h, read-out: Mean Plasma",279 nM
same,concentration at 0.5 h,"Study 4F, analyte Compound A, 2 mg/kg in combination with Cenobamate 5 mg/kg, read-out: mean plasma concentration",290 nM
same,concentration at 0.5 h,"Study 4G, analyte Compound A, 0.5 mg/kg in combination with Cenobamate 5 mg/kg, read-out: mean total plasma concentration",30 nM
same,concentration at 0.5 h,"Study 4G, analyte Compound A, 1 mg/kg in combination with Cenobamate 5 mg/kg, read-out: mean total plasma concentration",110 nM
same,concentration at 0.5 h,"po, 2 mg/kg, Study 4F, Compound A 2 mg/kg PO, 0.5 h, alone, read-out: mean plasma concentration",110 nM
same,Kp at 0.5 h,"po, 2 mg/kg, Study 4F, Compound A 2 mg/kg PO alone, read-out: B/P Ratio (brain to plasma ratio)",2.32
same,concentration at 2 h,"Study 2A, Compound A 1 mg/kg PO, 0.5 h, 1 mg/kg, read-out: Mean Plasma",80 nM
same,concentration at 2 h,"Study 2A, Compound A 5 mg/kg PO, 0.5 h, 5 mg/kg, read-out: Mean Plasma",280 nM
same,concentration at 2 h,"Study 2A, Compound A 10 mg/kg PO, 0.5 h, 10 mg/kg, read-out: Mean Plasma",370 nM
same,concentration at 2 h,"Study 2B, Compound A 10 mg/kg PO, 0.5 h, 10 mg/kg, read-out: Mean Plasma",550 nM
same,concentration at 2 h,"Study 2C, Compound A 3 mg/kg PO, 0.5 h, alone, 3 mg/kg, read-out: Mean Plasma",280 nM and 283 nM
same,B/P Ratio,[1],1.95 +
same,Mean Brain,[1],0.54 + μM
same,Mean Plasma,[1],0.28 + μM
same,concentration at 2 h,"Study 4B, Compound A 5 mg/kg PO, 0.5 h, 5 mg/kg, read-out: mean plasma concentration",470 nM
same,"Mean Brain, Compound A",[2],0.67 µM
same,"Mean Plasma, Compound A",[2],0.29 µM
same,"B/P Ratio, Compound A","Study 4F, Compound A 2 mg/kg PO in combination with Cenobamate 5 mg/kg PO",2.34
same,"Mean Brain, Compound A",[3],0.09 µM
same,"Mean Plasma, Compound A",[3],0.03 µM
same,"B/P Ratio, Compound A","Study 4G, Compound A 0.5 mg/kg PO in combination with Cenobamate 5 mg/kg PO",3.22
same,"Mean Brain, Compound A",[4],0.30 µM
same,"Mean Plasma, Compound A",[4],0.11 µM
same,"B/P Ratio, Compound A","Study 4G, Compound A 1 mg/kg PO in combination with Cenobamate 5 mg/kg PO",2.76
same,concentration at 30 min,"male, 1 mg/kg, Study 4A, Compound A 1 mg/kg single oral dose, 30 min pre-treatment, CF-1 mice, read-out: Brain",150 nM
same,concentration at 30 min,"male, 1 mg/kg, Study 4A, Compound A 1 mg/kg single oral dose, 30 min pre-treatment, CF-1 mice, read-out: Plasma",80 nM
same,concentration at 30 min,"male, 5 mg/kg, Study 4A, Compound A 5 mg/kg single oral dose, 30 min pre-treatment, CF-1 mice, read-out: Brain",400 nM
same,concentration at 30 min,"male, 5 mg/kg, Study 4A, Compound A 5 mg/kg single oral dose, 30 min pre-treatment, CF-1 mice, read-out: Plasma",280 nM
same,concentration at 30 min,"male, 10 mg/kg, Study 4A, Compound A 10 mg/kg single oral dose, 30 min pre-treatment, CF-1 mice, read-out: Brain",500 nM
same,concentration at 30 min,"male, 10 mg/kg, Study 4A, Compound A 10 mg/kg single oral dose, 30 min pre-treatment, CF-1 mice, read-out: Plasma",370 nM
same,Kp at 0.5 h,"male, po, 1 mg/kg, Study 2A, Compound A 1 mg/kg PO, 0.5 h, read-out: B/P Ratio",1.85
same,concentration at 0.5 h,"male, po, 1 mg/kg, Study 2A, Compound A 1 mg/kg PO, 0.5 h, read-out: Mean Brain",150 nM
same,concentration at 0.5 h,"male, po, 1 mg/kg, Study 2A, Compound A 1 mg/kg PO, 0.5 h, read-out: Mean Plasma",81.5 nM
same,concentration at 0.5 h,"male, po, 1 mg/kg, Study 4A, Compound A 1 mg/kg PO, 0.5 h, read-out: mean plasma concentration",80 nM
same,Kp at 30 min,"male, po, 1 mg/kg, Study 4A, Compound A 1 mg/kg single oral dose, read-out: B/P Ratio (brain to plasma ratio)",1.85
same,Kp at 0.5 h,"male, po, 3 mg/kg, Study 2C, Compound A 3 mg/kg PO, 0.5 h, alone, read-out: B/P Ratio",1.79
same,concentration at 0.5 h,"male, po, 3 mg/kg, Study 2C, Compound A 3 mg/kg PO, 0.5 h, alone, read-out: Mean Brain",510 nM
same,concentration at 0.5 h,"male, po, 3 mg/kg, Study 2C, Compound A 3 mg/kg PO, 0.5 h, alone, read-out: Mean Plasma",284 nM
same,concentration at 0.5 h,"male, po, 3 mg/kg, Study 4C, Compound A 3 mg/kg PO, 0.5 h, read-out: plasma concentration",280 nM
same,concentration at 30 min,"male, po, 3 mg/kg, Study 4C, Compound A 3 mg/kg single oral dose, CF-1 mice, read-out: Mean Brain",510 nM
same,concentration at 30 min,"male, po, 3 mg/kg, Study 4C, Compound A 3 mg/kg single oral dose, CF-1 mice, read-out: Mean Plasma",280 nM
same,Kp at 30 min,"male, po, 3 mg/kg, Study 4C, Compound A 3 mg/kg single oral dose, read-out: B/P Ratio (brain to plasma ratio)",1.79
same,Kp at 0.5 h,"male, po, 5 mg/kg, Study 2A, Compound A 5 mg/kg PO, 0.5 h, read-out: B/P Ratio",1.45
same,concentration at 0.5 h,"male, po, 5 mg/kg, Study 2A, Compound A 5 mg/kg PO, 0.5 h, read-out: Mean Brain",400 nM
same,concentration at 0.5 h,"male, po, 5 mg/kg, Study 2A, Compound A 5 mg/kg PO, 0.5 h, read-out: Mean Plasma",276 nM
